Results published in patent publication US12630510B2, “EP2 antagonist” (ONO PHARMACEUTICAL CO., LTD., priority 2019, dated 2026).
pIC50: −log10 of the molar value.

Target: T1, human EP2 receptor (Homo sapiens, UniProt P43116)
T1 construct: expressed in transfected cells; host or cells: CHO cells
Experiment: Experiment of measuring EP2 antagonistic activity using cells expressing prostanoid receptor (cAMP)
Type: cell-based
Settings: CHO cells expressing human EP2 receptor; PGE2 10 nmol/L; cAMP quantified after 1 hour at room temperature; read-out: EP2_IC50
Procedure: CHO cells on each of which a human EP2 receptor had been expressed were prepared in accordance with the method by Nishigaki et al, (FEBS Letters, vol. 364, pp. 339-341, 1995) and were then cryopreserved in CELLBANKER2 (Nippon Zenyaku Kogyo Co., Ltd.) at a concentration of 1.5×10^7 cells/mL/vial. The CHO cells thus prepared were used in the experiment. The cells were thawed, and were then suspended in an assay medium (D-PBS containing 1 mmol/L IBMX, 2 μmol/L Diclofenac) at a concentration of 5×10^5 cells/mL. PGE2 alone having a final concentration of 10 nmol/L or a solution (10 μL) containing the PGE2 and a test compound was added to the cell suspension (10 μL) to initiate the reaction. After the reaction was performed at room temperature for 1 hour, the amount of cAMP in the cells was quantified in accordance with the method described in cAMP Gs Dynamic kit (CISBIO).
The antagonistic activity (IC50 value) of a test compound was calculated as a percentage of suppression of the reaction at 10 nM, which was a concentration at which a submaximal cAMP production activity was observed when PGE2 alone was employed. In this manner, an IC50 value was determined.

T1 sequence (P43116 whole entry): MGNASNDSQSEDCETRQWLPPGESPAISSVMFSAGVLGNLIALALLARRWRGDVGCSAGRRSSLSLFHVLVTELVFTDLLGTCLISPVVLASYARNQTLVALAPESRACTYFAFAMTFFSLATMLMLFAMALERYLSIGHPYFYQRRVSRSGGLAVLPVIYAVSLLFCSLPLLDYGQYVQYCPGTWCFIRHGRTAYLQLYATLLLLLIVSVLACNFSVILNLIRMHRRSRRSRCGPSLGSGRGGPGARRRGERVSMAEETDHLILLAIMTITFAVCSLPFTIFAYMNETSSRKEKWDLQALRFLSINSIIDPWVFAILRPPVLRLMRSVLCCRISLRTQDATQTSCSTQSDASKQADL

Row | SMILES | pIC50
1 | Cc1cc(OCCc2ccccc2)cc(C)c1C(=O)Nc1cc([C@@H]2C[C@@H]2C(=O)O)ccc1C(F)(F)F [Example 19, (1S,2R)-2-[3-{[2,6-Dimethyl-4-(2-phenylethoxy)benzoyl]amino}-4-(trifluoromethyl)phenyl]cyclopropanecarboxylic acid] | 7.92
2 | CC(C)c1nn(CCCc2ccccc2)cc1C(=O)Nc1cc([C@H]2C[C@H]2C(=O)O)ccc1C(F)(F)F [Example 31-1, (1R,2S)-2-[3-({[3-Isopropyl-1-(3-phenylpropyl)-1H-pyrazol-4-yl]carbonyl}amino)-4-(trifluoromethyl)phenyl]cyclopropanecarboxylic acid] | 8.05
3 | CC[C@H](C)n1c(CCCc2ccccc2)ccc1C(=O)Nc1cc([C@H]2C[C@H]2C(=O)O)ccc1C(F)(F)F [Example 6, (1R,2S)-2-{3-[({1-[(2S)-2-Butanyl]-5-(3-phenylpropyl)-1H-pyrrol-2-yl}carbonyl)amino]-4-(trifluoromethyl)phenyl}cyclopropanecarboxylic acid] | > 9.52
4 | Cc1cc(OCCc2ccc(F)cc2F)cc(C)c1C(=O)Nc1cc([C@H]2C[C@H]2C(=O)O)ccc1C(F)(F)F [Example 13, (1R,2S)-2-[3-({4-[2-(2,4-Difluorophenyl)ethoxy]-2,6-dimethylbenzoyl}amino)-4-(trifluoromethyl)phenyl]cyclopropanecarboxylic acid] | 8.33
5 | CC(C)c1c(OCc2ccccc2)cccc1C(=O)Nc1cc([C@H]2C[C@H]2C(=O)O)ccc1C(F)(F)F [Example 29-1, (1R,2S)-2-[3-{[3-(Benzyloxy)-2-isopropylbenzoyl]amino}-4-(trifluoromethyl)phenyl]cyclopropanecarboxylic acid] | 7.96
6 | CC[C@H](C)n1c(CCCc2ccccc2)ccc1C(=O)Nc1cc([C@H]2C[C@H]2C(=O)O)ccc1Cl [Example 7, (1R,2S)-2-{3-[({1-[(2S)-2-Butanyl]-5-(3-phenylpropyl)-1H-pyrrol-2-yl}carbonyl)amino]-4-chlorophenyl}cyclopropanecarboxylic acid] | 9.52
7 | Cc1cc(OCCc2ccccc2)cc(C)c1C(=O)Nc1cc([C@H]2C[C@@]2(C)C(=O)O)ccc1C(F)(F)F [Example 26, (1R,2R)-2-[3-{[2,6-Dimethyl-4-(2-phenylethoxy)benzoyl]amino}-4-(trifluoromethyl)phenyl]-1-methylcyclopropanecarboxylic acid] | 7.57
8 | CC(C)c1c(C(=O)Nc2cc([C@H]3C[C@H]3C(=O)O)ccc2C(F)(F)F)cnn1CCCc1ccccc1 [Example 31-2, (1R,2S)-2-[3-({[5-Isopropyl-1-(3-phenylpropyl)-1H-pyrazol-4-yl]carbonyl}amino)-4-(trifluoromethyl)phenyl]cyclopropanecarboxylic acid] | 8.89
9 | Cc1cc(OCCc2ccccc2)cc(C)c1C(=O)Nc1cc(CC(C)C(=O)O)ccc1C(F)(F)F (stereo not drawn) [Example 24-2, 3-[3-f{[2,6-Dimethyl-4-(2-phenylethoxy)benzoyl]amino}-4-(trifluoromethyl)phenyl]-2-methylpropanoic acid] | 7.92
10 | Cc1cc(OCCc2ccccc2)cc(C)c1C(=S)Nc1cc([C@H]2C[C@H]2C(=O)O)ccc1C(F)(F)F [Example 32, (1R,2S)-2-[3-({[2,6-Dimethyl-4-(2-phenylethoxy)phenyl]carbonothioyl}amino)-4-(trifluoromethyl)phenyl]cyclopropanecarboxylic acid] | 7.89
11 | Cc1cc(OCCc2ccccc2)cc(C)c1C(=O)Nc1cc(CCC(=O)O)ccc1C(F)(F)F [Example 24, 3-[3-f{[2,6-Dimethyl-4-(2-phenylethoxy)benzoyl]amino}-4-(trifluoromethyl)phenyl]propanoic acid] | 8.28
12 | CC[C@H](C)n1c(CCCc2ccccc2)ccc1C(=O)Nc1cc([C@H]2C[C@H]2C(=O)O)ccc1C(F)(F)F (relative stereo) [Example 2, rel-(1R,2S)-2-{3-[({1-[(2S)-2-Butanyl]-5-(3-phenylpropyl)-1H-pyrrol-2-yl}carbonyl)amino]-4-(trifluoromethyl)phenyl}cyclopropanecarboxylic acid] | 8.80
